Publication PMC10501326, “A Phase I Study of the Pan-Notch Inhibitor CB-103 for Patients with Advanced Adenoid Cystic Carcinoma and Other Tumors” (Cancer Research Communications, 2023)
Several values for one entry are separate records, joined by “and”; a condition that tells them apart may be missing. Equal values may be shown once. Read-outs that look alike come from different tables or passages of the source.

What was measured:
Format in all cases: in vivo, human
[1] = Plasma pharmacokinetics (LC/MS-MS); details: for half-life: SD, read-out: Plasma elimination half-life (t1/2) (converted)
Protocol: Plasma pharmacokinetics were assessed for CB-103 via blood samples taken on days 1 (predose, 0.5, 1, 2, 4, 6, 8 hours postdose ± 5 minutes, and 12 hours postdose ± 15 minutes), 2 (24-hour post-day 1, predose), 3 (predose), 8 (predose, 0.5, 1, 2, 4, 6, and 8 hour postdose ± 5 minutes), 9 (24-hour post-day 8, predose), 15, and 22 (predose, and 1 hour postdose) in cycle 1. In cycle 2, on day 1 (predose, 0.5, 1, 2, 6, and, 8 hours postdose ± 5 minutes) and 15 (predose); in cycles 3–6 once at each visit (predose or postdose). For a twice daily dose schedule, pharmacokinetic timepoints were adjusted to evaluate concentration-versus-time curves after morning and evening doses on days 1 and 8.
CB-103 concentrations were determined by validated high-performance LC/MS-MS method and analyzed descriptively using Phoenix WinNonlin v6.3 (Pharsight Corporation). Data at timepoints collected were used to generate a population pharmacokinetic model to estimate AUC and Cmax to associate with safety and efficacy.

IL7R alpha = assay: Peripheral whole blood Notch target gene expression (Nanostring); details: twice daily dosing, vs baseline
From the text: (§1) Archival tumor tissue (not older than 6 months prior to screening) or fresh tumor biopsy was required to characterize Notch alteration status by targeted genomic sequencing and/or NICD1 expression (via IHC) among the confirmatory cohort at baseline. Repeat biopsy on cycle 2 day 15 and at disease progression was optional. Serial whole blood samples (and/or bone marrow samples and saliva among patients with T-ALL/T-LBL) were obtained on day 1 of cycles 1–6 to evaluate the dynamics of Notch gene expression. Peripheral blood was collected with PaxGene tubes and frozen at −20°C until processing. RNA was extracted (Qiagen RNeasy Micro kit) from peripheral whole blood and analyzed by Nanostring with percent change in expression levels reported with respect to baseline normalized values.

NOTCH 2 = assay: as above; details: twice daily dosing, vs baseline
From the text: as §1

HEY1 = assay: as above; details: twice daily dosing, vs baseline
From the text: as §1

NOTCH4 = assay: as above; details: twice daily dosing, vs baseline
From the text: as §1

NOTCH1 = assay: as above; details: twice daily dosing, vs baseline
From the text: as §1

[2] = individual patient, total dose 800 mg
[3] = individual patients, total dose 500 mg
[4] = individual patients, total dose 600 mg
[5] = individual patients, total dose 1000 mg

CC(C)(C)c1ccc(Oc2ccc(N)cn2)cc1 [CB-103]
AUC ([1]; human, plasma, oral, 13 mg, Cohort 1 (13 mg), Cycle 1, Day 1, read-out: Mean AUC24): 174 ng·h/mL
Cmax ([1]; human, plasma, oral, 13 mg, Cohort 1 (13 mg), Cycle 1, Day 1, read-out: Mean Cmax): 44.4 ng/mL
AUC ([1]; human, plasma, oral, 13 mg, Cohort 1 (13 mg), Cycle 1, Day 8, read-out: Mean AUC24): 433 ng·h/mL
Cmax ([1]; human, plasma, oral, 13 mg, Cohort 1 (13 mg), Cycle 1, Day 8, read-out: Mean Cmax): 58.7 ng/mL
AUC ([1]; human, plasma, oral, 26 mg, Cohort 2 (26 mg), Cycle 1, Day 1, read-out: Mean AUC24): 220 ng·h/mL
Cmax ([1]; human, plasma, oral, 26 mg, Cohort 2 (26 mg), Cycle 1, Day 1, read-out: Mean Cmax): 53.7 ng/mL
AUC ([1]; human, plasma, oral, 52 mg, Cohort 3 (52 mg), Cycle 1, Day 1, read-out: Mean AUC24): 496 ng·h/mL
Cmax ([1]; human, plasma, oral, 52 mg, Cohort 3 (52 mg), Cycle 1, Day 1, read-out: Mean Cmax): 98.5 ng/mL
AUC ([1]; human, plasma, oral, 52 mg, Cohort 3 (52 mg), Cycle 1, Day 8, read-out: Mean AUC24): 999 ng·h/mL
Cmax ([1]; human, plasma, oral, 52 mg, Cohort 3 (52 mg), Cycle 1, Day 8, read-out: Mean Cmax): 154 ng/mL
AUC ([1]; human, plasma, oral, 104 mg, Cohort 4 (104 mg), Cycle 1, Day 1, read-out: Mean AUC24): 1440 ng·h/mL
Cmax ([1]; human, plasma, oral, 104 mg, Cohort 4 (104 mg), Cycle 1, Day 1, read-out: Mean Cmax): 368 ng/mL
AUC ([1]; human, plasma, oral, 104 mg, Cohort 4 (104 mg), Cycle 1, Day 8, read-out: Mean AUC24): 3690 ng·h/mL
Cmax ([1]; human, plasma, oral, 104 mg, Cohort 4 (104 mg), Cycle 1, Day 8, read-out: Mean Cmax): 418 ng/mL
AUC ([1]; human, plasma, oral, 148 mg, Cohort 5 (148 mg), Cycle 1, Day 1, read-out: Mean AUC24): 1260 ng·h/mL
Cmax ([1]; human, plasma, oral, 148 mg, Cohort 5 (148 mg), Cycle 1, Day 1, read-out: Mean Cmax): 482 ng/mL
AUC ([1]; human, plasma, oral, 148 mg, Cohort 5 (148 mg), Cycle 1, Day 8, read-out: Mean AUC24): 2830 ng·h/mL
Cmax ([1]; human, plasma, oral, 148 mg, Cohort 5 (148 mg), Cycle 1, Day 8, read-out: Mean Cmax): 427 ng/mL
AUC ([1]; human, plasma, oral, 217 mg, Cohort 6 (217 mg), Cycle 1, Day 1, read-out: Mean AUC24): 2620 ng·h/mL
Cmax ([1]; human, plasma, oral, 217 mg, Cohort 6 (217 mg), Cycle 1, Day 1, read-out: Mean Cmax): 731 ng/mL
AUC ([1]; human, plasma, oral, 217 mg, Cohort 6 (217 mg), Cycle 1, Day 8, read-out: Mean AUC24): 4250 ng·h/mL
Cmax ([1]; human, plasma, oral, 217 mg, Cohort 6 (217 mg), Cycle 1, Day 8, read-out: Mean Cmax): 912 ng/mL
AUC ([1]; human, plasma, oral, 250 mg, Cohort 9 (250 mg BID), Cycle 1, Day 1, read-out: Mean AUC24): 6140 ng·h/mL
Cmax ([1]; human, plasma, oral, 250 mg, Cohort 9 (250 mg BID), Cycle 1, Day 1, read-out: Mean Cmax): 1010 ng/mL
AUC ([1]; human, plasma, oral, 250 mg, Cohort 9 (250 mg BID), Cycle 1, Day 8, read-out: Mean AUC24): 11700 ng·h/mL
Cmax ([1]; human, plasma, oral, 250 mg, Cohort 9 (250 mg BID), Cycle 1, Day 8, read-out: Mean Cmax): 1310 ng/mL
AUC ([1]; human, plasma, oral, 300 mg, Cohort 10 (300 mg BID 5/2), Cycle 1, Day 1, read-out: Mean AUC24): 10400 ng·h/mL
Cmax ([1]; human, plasma, oral, 300 mg, Cohort 10 (300 mg BID 5/2), Cycle 1, Day 1, read-out: Mean Cmax): 1630 ng/mL
AUC ([1]; human, plasma, oral, 300 mg, Cohort 10 (300 mg BID 5/2), Cycle 1, Day 8, read-out: Mean AUC24): 11300 ng·h/mL
Cmax ([1]; human, plasma, oral, 300 mg, Cohort 10 (300 mg BID 5/2), Cycle 1, Day 8, read-out: Mean Cmax): 1390 ng/mL
AUC ([1]; human, plasma, oral, 348 mg, Cohort 7 (348 mg), Cycle 1, Day 1, read-out: Mean AUC24): 3520 ng·h/mL
Cmax ([1]; human, plasma, oral, 348 mg, Cohort 7 (348 mg), Cycle 1, Day 1, read-out: Mean Cmax): 1150 ng/mL
AUC ([1]; human, plasma, oral, 348 mg, Cohort 7 (348 mg), Cycle 1, Day 8, read-out: Mean AUC24): 6880 ng·h/mL
Cmax ([1]; human, plasma, oral, 348 mg, Cohort 7 (348 mg), Cycle 1, Day 8, read-out: Mean Cmax): 874 ng/mL
AUC ([1]; human, plasma, oral, 400 mg, Cohort 11 (400 mg BID 5/2), Cycle 1, Day 1, read-out: Mean AUC24): 14900 ng·h/mL
Cmax ([1]; human, plasma, oral, 400 mg, Cohort 11 (400 mg BID 5/2), Cycle 1, Day 1, read-out: Mean Cmax): 1620 ng/mL
AUC ([1]; human, plasma, oral, 400 mg, Cohort 11 (400 mg BID 5/2), Cycle 1, Day 8, read-out: Mean AUC24): 14100 ng·h/mL
Cmax ([1]; human, plasma, oral, 400 mg, Cohort 11 (400 mg BID 5/2), Cycle 1, Day 8, read-out: Mean Cmax): 2400 ng/mL
AUC ([1]; human, plasma, oral, 500 mg, Cohort 12 (500 mg BID 5/2), Cycle 1, Day 1, read-out: Mean AUC24): 14200 ng·h/mL
Cmax ([1]; human, plasma, oral, 500 mg, Cohort 12 (500 mg BID 5/2), Cycle 1, Day 1, read-out: Mean Cmax): 2390 ng/mL
AUC ([1]; human, plasma, oral, 500 mg, Cohort 12 (500 mg BID 5/2), Cycle 1, Day 8, read-out: Mean AUC24): 18600 ng·h/mL
Cmax ([1]; human, plasma, oral, 500 mg, Cohort 12 (500 mg BID 5/2), Cycle 1, Day 8, read-out: Mean Cmax): 2760 ng/mL
Cmax ([1]; human, plasma, oral, 500 mg, individual patients, total dose 500 mg, twice daily dosing, read-out: Cmax): 1230 ng/mL
AUC ([1]; human, plasma, oral, 522 mg, Cohort 8 (522 mg), Cycle 1, Day 1, read-out: Mean AUC24): 5910 ng·h/mL
Cmax ([1]; human, plasma, oral, 522 mg, Cohort 8 (522 mg), Cycle 1, Day 1, read-out: Mean Cmax): 1230 ng/mL
AUC ([1]; human, plasma, oral, 522 mg, Cohort 8 (522 mg), Cycle 1, Day 8, read-out: Mean AUC24): 13500 ng·h/mL
Cmax ([1]; human, plasma, oral, 522 mg, Cohort 8 (522 mg), Cycle 1, Day 8, read-out: Mean Cmax): 1740 ng/mL
Cmax ([1]; human, plasma, oral, 800 mg, individual patient, total dose 800 mg, twice daily dosing, read-out: Cmax): 1730 ng/mL
half-life ([1]; human, plasma, oral, cycle 1 day 1, 8.5): 16.5 h
Cmax ([1]; human, plasma, oral, cycle 1 day 1, entire sampled cohort, read-out: Mean Cmax): 731 ng/mL
half-life ([1]; human, plasma, oral, cycle 1 day 8, 42.6): 37.7 h
AUC ([1]; human, plasma, oral, entire sampled cohort, read-out: Mean AUC from 0 to 24): 3160 ng·h/mL
Tmax ([1]; human, plasma, oral, day 1 of cycle 1, dose-escalation cohorts 1 through 8, read-out: Peak (tmax)): 0.5 to 2 h
Cmax ([1]; individual patients, total dose 500 mg, twice daily dosing, read-out: Cmax): 1800 ng/mL
Cmax ([1]; individual patients, total dose 600 mg, twice daily dosing): 638 ng·h/mL and 2100 ng·h/mL and 1280 ng·h/mL and 1220 ng·h/mL and 1710 ng·h/mL
Cmax ([1]; individual patients, total dose 1000 mg, twice daily dosing): 4420 ng·h/mL and 2580 ng·h/mL and 3760 ng·h/mL and 2410 ng·h/mL and 1240 ng·h/mL
IL7R alpha percent change in peripheral expression (IL7R alpha; [2]): -29.7%
IL7R alpha percent change in peripheral expression (IL7R alpha; [3]): 32.3% and 33.5%
IL7R alpha percent change in peripheral expression (IL7R alpha; [4]): 58.3% and -58.0% and -24.8% and -2.9% and -29.3%
IL7R alpha percent change in peripheral expression (IL7R alpha; [5]): -53.6% and 3.5% and -16.2% and 0.2% and -41.7%
NOTCH 2 percent change in peripheral expression (NOTCH 2; [2]): -9.4%
NOTCH 2 percent change in peripheral expression (NOTCH 2; [3]): 19.9% and -9.6%
NOTCH 2 percent change in peripheral expression (NOTCH 2; [4]): -25.2% and -38.4% and -5.5% and -14.8% and -41.1%
NOTCH 2 percent change in peripheral expression (NOTCH 2; [5]): -31.8% and -14.2% and -39.3% and -15.2% and 5.1%
HEY1 percent change in peripheral expression (HEY1; [2]): 52.3%
HEY1 percent change in peripheral expression (HEY1; [3]): -52.0%
HEY1 percent change in peripheral expression (HEY1; [4]): 5.0% and -36.1% and 30.3% and -25.6%
HEY1 percent change in peripheral expression (HEY1; [5]): 11.7% and -71.3% and -75.9% and -55.2% and -57.8%
NOTCH4 percent change in peripheral expression (NOTCH4; [2]): -3.5%
NOTCH4 percent change in peripheral expression (NOTCH4; [3]): 37.6% and -16.9%
NOTCH4 percent change in peripheral expression (NOTCH4; [4]): 34.0% and -49.7% and -7.9% and 11.5% and 32.9%
NOTCH4 percent change in peripheral expression (NOTCH4; [5]): -20.8% and -40.4% and 22.0% and 4.5% and 29.7%
NOTCH1 percent change in peripheral expression (NOTCH1; [2]): -15.5%
NOTCH1 percent change in peripheral expression (NOTCH1; [3]): 39.2% and -7.1%
NOTCH1 percent change in peripheral expression (NOTCH1; [4]): -28.1% and -41.2% and -35.7% and -14.2% and -39.7%
NOTCH1 percent change in peripheral expression (NOTCH1; [5]): -8.7% and -0.1% and -58.3% and -20.2% and -13.3%
